According to article PMC10808720 (Frontiers in Pharmacology, 2024):

What was measured:
[1] = Cytotoxicity assay (AlamarBlue); assay type: cell-based, Human; details: human, A549 cells
Protocol: The cytotoxicity of the molecules was analyzed using the commercial kit AlamarBlue® (Invitrogen, Ref. DAL1025) according to the manufacturer’s instructions. Briefly, A549 cells were seeded at a density of 5 × 10^3 cells per well in 96-well plates, and decreasing serial dilutions of each molecule were diluted in 100 μL of DMEM starting at 200 μM. The cells were then incubated at 37°C for 48 h following the manufacturer’s protocol. The cytotoxic concentration 50% (CC50) value was obtained using the statistical software GraphPad Prism 6. The assay was performed in duplicate.

HAdV5-GFP = experiment: HAdV time of addition assay; assay type: cell-based, human adenovirus (HAdV5); details: 10-fold IC50
Protocol: The anti-HAdV effect of these natural compounds at different time-points was measured through a time-curve assay using 293β5 cells (3 × 10^4 cells/well in Corning black wall, clear bottom 96-well plates) infected with HAdV5-GFP (MOI 2,000 vp/cell) in the presence of 100 μL of complete DMEM containing 10-fold IC50 concentration of each comound obtained in the plaque assay for each compound or the same volume of DMSO (positive control). A standard infection curve was generated in parallel by infecting cells in the absence of compounds using 2-fold serial dilutions of the virus from an MOI of 2,000 vp/cell in order to extrapolate the GFP resulting from each molecule with its corresponding MOI.
Parallel samples of HAdV5 were incubated with or without the selected compounds on ice for 1 h. HAdV5 was then added to 293β5 cells and incubated at 37°C. Compounds were then added at the indicated time points until the last time point at 2 h. Then, the cells were incubated for an additional 48 h at 37°C and 5% CO2 before being analyzed for GFP expression using a Typhoon 9410 imager (GE Healthcare Life Sciences) and ImageQuantTL (GE Healthcare Life Sciences), as we described earlier.

wild-type HAdV5 = experiment: HAdV DNA quantification by qPCR; assay type: cell-based, human adenovirus (HAdV5); details: 10-fold IC50; A549; 24 h; vs DMSO control
Protocol: For DNA quantification, A549 cells (1.5 × 10^5 cells/well in a 24-well plate) were incubated for 24 h in 500 μL of complete DMEM and were infected with wild-type HAdV5 (MOI 100 vp/cell) after observing more than 90% of confluency. Infected cells were incubated for 24 h at 37°C in 500 μL of either complete DMEM containing 10-fold IC50 concentration of the compounds obtained in the plaque assay or the same volume of DMSO (positive control). All samples were prepared in duplicate. After 24 h of incubation at 37°C, DNA was purified from the cell lysate with the E.Z.N.A.® Tissue DNA Kit (Omega Bio-tek, Norcross, GA) following the manufacturer’s instructions. PCR conditions, primers, and probes were as described by [Henke-Gendo et al. (2012)]. Human glyceraldehyde-3-phosphate dehydrogenase (GAPDH) gene was used as an internal control. GAPDH oligonucleotide sequences and conditions were as previously described by [Rivera et al. (2004)].
For quantification, gene fragments from hexons, and GAPDH were cloned into the pGEM-T Easy vector (Promega) and known concentrations of the template were used to generate a standard curve in parallel for each experiment, as previously reported ([Sanchez-Cespedes et al., 2016]). All assays were performed in thermal cycler LightCycler® 96 System (Roche).

In the case of C=C(C)[C@H]1Cc2c(ccc3c2O[C@@H]2COc4cc(OC)c(OC)cc4[C@@H]2C3=O)O1 [Rotenone, (2R,6aS,12aS)-8,9-dimethoxy-2-(prop-1-en-2-yl)-1,2,12,12a-tetrahydrochromeno[3,4-b]furo[2,3-h]chromen-6-(6aH)-one], the CC50 at 48 h [1] is reported as 600 ± 200 nM, the “time dependence of inhibitory activity” value (HAdV5-GFP; addition up to 2 h) is reported as “sharp loss of inhibitory activity” and the “loss of inhibitory activity” value (HAdV5-GFP; compound added at 10 min p.i.) is reported as “more than 25%”. For the same compound, the “loss of inhibitory activity” value (HAdV5-GFP; compound added at 40 min p.i.) was “more than 60%” and the “HAdV DNA copy number (de novo synthesis)” value (wild-type HAdV5) was “significant decrease”.
